Experimental data from ChEMBL document CHEMBL3785036 (J Pharm Sci, 1974).

Assay: Drug excretion in human subject slow inactivator assessed as total isonicotinoyl compound level in urine at 681 mg, iv infused at constant rate 5.4 min measured 35.5 mins after start of drug injection by colorimetry
Type: ADME, organism-based
Details: in vivo

Work on `NNC(=O)c1ccncc1` [ISONIAZID] yielded a Drug excretion of 50.1 mg.
